Patent US10611740B2, “Aryl dihydro-2H-benzo[b][1,4]oxazine sulfonamide and related compounds for use as agonists of RORγ and the treatment of disease” (Lycera Corporation, priority 2015, dated 2020)

Key:
RORγ-LBD = target: T1, RORγ-LBD (Homo sapiens, UniProt P51449); experiment: RORγ-Ligand Binding Domain (LBD) TR-FRET Assay; type: biochemical;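 as to TR-FRET Assay Max Response: 665/615 nm ratio relative to signal without ursolic acid or compound set at 100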
T1 construct: made in house; host or cells: SF9 cells (baculovirus)
T1 sequence (P51449 269-508 limits assumed): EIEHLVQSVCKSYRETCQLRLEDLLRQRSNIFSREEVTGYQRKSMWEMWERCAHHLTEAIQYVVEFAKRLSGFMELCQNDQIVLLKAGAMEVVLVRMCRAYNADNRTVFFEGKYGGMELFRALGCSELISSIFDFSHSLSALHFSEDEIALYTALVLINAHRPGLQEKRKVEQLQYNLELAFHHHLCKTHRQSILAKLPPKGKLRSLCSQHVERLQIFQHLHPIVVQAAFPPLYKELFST
Procedure, shortened: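 Compounds, diluted in DMSO and then in assay buffer (1% DMSO final), were combined with His-tagged RORγ-LBD lysate at roughly 3 nM final and a 200 nM biotinylated SRC1 LXXLL peptide. Ursolic acid was included at 2 μM final. Coactivator recruitment was detected by TR-FRET.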

Gal4-RORγ-LBD = target: T2, Gal4-RORγ-LBD (Homo sapiens, UniProt P51449); experiment: Gal4-RORγ Luciferase Reporter Assay in HEK-293T Cells; type: cell-based; conditions: HEK-293 cells
T2 construct: expressed in transfected cells; host or cells: HEK-293 cells (pcDNA3.1neo plasmid)
T2 sequence (P51449 269-508 limits assumed): T1 sequence (P51449 269-508 limits assumed)
Procedure, shortened: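 HEK-293 cells were transiently co-transfected with Gal4-RORγ-LBD and pGL4.31 Gal4-luciferase, with ursolic acid added at 2 μM final. Compounds were incubated overnight at 37° C. in 0.2% DMSO and luminescence read with One-Glo. Max Response is the upper plateau of a 4-parameter logistic fit, with signal lacking ursolic acid or compound set to 100.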

[1] = luciferase reporter, with 2 μM ursolic acid

| Compound | EC50 (RORγ-LBD) [nM] | EC50 (Gal4-RORγ-LBD; [1]) [nM] | EC50 (Gal4-RORγ-LBD; 2 μM ursolic acid) [nM] | TR-FRET Assay Max Response (RORγ-LBD) | Gal4-RORγ Assay Max Response (Gal4-RORγ-LBD; [1]) | Gal4-RORγ Assay Max Response (Gal4-RORγ-LBD; 2 μM ursolic acid) |
| --- | --- | --- | --- | --- | --- | --- |
| CC(C)(O)C(=O)NC[C@H]1CN(S(=O)(=O)c2cccc(OC(F)F)c2)c2cc(-c3cc(F)ccc3F)ccc2O1 [Compound 30R, (S)-N-((4-((3-(difluoromethoxy)-phenyl)sulfonyl)-6-(2,5-difluorophenyl)-3,4-dihydro-2H-benzo[b][1,4]oxazin-2-yl)methyl)-2-hydroxy-2-methylpropanamide] | < 500 | < 500 | – | **** (The symbol “****” indicates a value greater than 200) | ** (The symbol “**” indicates a value in the range of greater than 90 to 150) | – |
| COc1cccc(-c2ccc3c(c2)N(S(=O)(=O)c2ccc(F)c(OC)c2)C[C@H](CNC(=O)C(C)(C)O)O3)c1 [Compound 30S, (S)-N-((4-((4-fluoro-3-methoxyphenyl)sulfonyl)-6-(3-methoxyphenyl)-3,4-dihydro-2H-benzo[b][1,4]oxazin-2-yl)methyl)-2-hydroxy-2-methylpropanamide] | < 500 | < 500 | – | **** (The symbol “****” indicates a value greater than 200) | * (The symbol “*” indicates a value in the range of 25 to 90) | – |
| CC(C)(O)C(=O)NC[C@H]1CN(S(=O)(=O)c2cncc(C(F)(F)F)c2)c2cc(-c3cc(F)ccc3F)ccc2O1 [Compound 30U, (S)-N-((6-(2,5-difluorophenyl)-4-((5-(trifluoromethyl)pyridin-3-yl)sulfonyl)-3,4-dihydro-2H-benzo[b][1,4]oxazin-2-yl)methyl)-2-hydroxy-2-methylpropanamide] | < 500 | < 500 | – | *** (The symbol “***” indicates a value in the range of greater than 150 to 200) | ** (The symbol “**” indicates a value in the range of greater than 90 to 150) | – |
| C[C@@](O)(C(=O)NC[C@H]1CN(S(=O)(=O)c2cccc(C(F)(F)F)c2)c2cc(-c3cc(F)ccc3F)ccc2O1)C(F)(F)F [Compound 30V, (R)-N-(((S)-6-(2,5-difluoro-phenyl)-4-((3-(trifluoromethyl)-phenyl)sulfonyl)-3,4-dihydro-2H-benzo[b][1,4]oxazin-2-yl)methyl)-3,3,3-trifluoro-2-hydroxy-2-methylpropanamide] | < 500 | < 500 | – | **** (The symbol “****” indicates a value greater than 200) | * (The symbol “*” indicates a value in the range of 25 to 90) | – |
| C[C@](O)(C(=O)NC[C@H]1CN(S(=O)(=O)c2cccc(C(F)(F)F)c2)c2cc(-c3cc(F)ccc3F)ccc2O1)C(F)(F)F [Compound 30W, (S)-N-(((S)-6-(2,5-difluoro-phenyl)-4-((3-(trifluoromethyl)-phenyl)sulfonyl)-3,4-dihydro-2H-benzo[b][1,4]oxazin-2-yl)methyl)-3,3,3-trifluoro-2-hydroxy-2-methylpropanamide] | < 500 | < 500 | – | **** (The symbol “****” indicates a value greater than 200) | ** (The symbol “**” indicates a value in the range of greater than 90 to 150) | – |
| COc1cc(S(=O)(=O)N2C[C@H](CNC(=O)[C@@](C)(O)C(F)(F)F)Oc3ccc(-c4cc(F)ccc4F)cc32)ccc1F [Compound 30X, (R)-N-(((S)-6-(2,5-difluorophenyl)-4-((4-fluoro-3-methoxyphenyl)sulfonyl)-3,4-dihydro-2H-benzo[b][1,4]oxazin-2-yl)methyl)-3,3,3-trifluoro-2-hydroxy-2-methylpropanamide] | < 500 | < 500 | – | *** (The symbol “***” indicates a value in the range of greater than 150 to 200) | * (The symbol “*” indicates a value in the range of 25 to 90) | – |
| O=C(NC[C@H]1CN(S(=O)(=O)c2cccc(C(F)(F)F)c2)c2cc(-c3cc(F)ccc3F)ccc2O1)C1CC1 [Compound 30Y, (S)-N-((6-(2,5-difluorophenyl)-4-((3-(trifluoromethyl)phenyl)-sulfonyl)-3,4-dihydro-2H-benzo[b][1,4]oxazin-2-yl)-methyl)cyclopropane-carboxamide] | < 500 | < 500 | – | **** (The symbol “****” indicates a value greater than 200) | ** (The symbol “**” indicates a value in the range of greater than 90 to 150) | – |
| O=C(NC[C@H]1CN(S(=O)(=O)c2cccc(C(F)(F)F)c2)c2cc(-c3cc(F)ccc3F)ccc2O1)C1COC1 [Compound 30Z, (S)-N-((6-(2,5-difluorophenyl)-4-((3-(trifluoromethyl)phenyl)-sulfonyl)-3,4-dihydro-2H-benzo[b][1,4]oxazin-2-yl)methyl)oxetane-3-carboxamide] | < 500 | < 500 | – | **** (The symbol “****” indicates a value greater than 200) | * (The symbol “*” indicates a value in the range of 25 to 90) | – |
| CC(C)(C[C@H]1CN(S(=O)(=O)c2cccc(C(F)(F)F)c2)c2cc(-c3cc(F)ccc3F)ccc2O1)C(=O)O [Compound 31, (S)-3-(6-(2,5-difluorophenyl)-4-((3-(trifluoromethyl)phenyl)sulfonyl)-3,4-dihydro-2H-benzo[b][1,4]oxazin-2-yl)-2,2-dimethylpropanoic Acid] | < 500 | < 500 | – | **** (The symbol “****” indicates a value greater than 200) | ** (The symbol “**” indicates a value in the range of greater than 90 to 150) | – |

Second part, led by results:

| EC50 (RORγ-LBD) [nM] | EC50 (Gal4-RORγ-LBD; [1]) [nM] | EC50 (Gal4-RORγ-LBD; 2 μM ursolic acid) [nM] | Compound | TR-FRET Assay Max Response (RORγ-LBD) | Gal4-RORγ Assay Max Response (Gal4-RORγ-LBD; [1]) | Gal4-RORγ Assay Max Response (Gal4-RORγ-LBD; 2 μM ursolic acid) |
| --- | --- | --- | --- | --- | --- | --- |
| < 500 | < 500 | – | CC(C)(CC[C@H]1CN(S(=O)(=O)c2cccc(C(F)(F)F)c2)c2cc(-c3cc(F)ccc3F)ccc2O1)C(=O)O [Compound 32A, (S)-4-(6-(2,5-difluorophenyl)-4-((3-(trifluoromethyl)phenyl)-sulfonyl)-3,4-dihydro-2H-benzo[b][1,4]oxazin-2-yl)-2,2-dimethylbutanoic acid] | **** (The symbol “****” indicates a value greater than 200) | ** (The symbol “**” indicates a value in the range of greater than 90 to 150) | – |
| < 500 | – | < 500 | CC(C)(C[C@H]1CN(S(=O)(=O)c2cccc(C(F)(F)F)c2)c2cc(-c3cccc(C(F)(F)F)c3Cl)ccc2O1)C(=O)O [Compound 32AA, (S)-3-(6-(2-chloro-3-(trifluoromethyl)phenyl)-4-((3-(trifluoromethyl)phenyl)sulfonyl)-3,4-dihydro-2H-benzo[b][1,4]-oxazin-2-yl)-2,2-dimethyl-propanoic acid] | **** (The symbol “****” indicates a value greater than 200) | – | ** (The symbol “**” indicates a value in the range of greater than 90 to 150) |
| < 500 | – | < 500 | CC(C)(C[C@H]1CN(S(=O)(=O)c2cccc(C(F)(F)F)c2)c2cc(-c3cc(Cl)cc(C(F)(F)F)c3)ccc2O1)C(=O)O [Compound 32AB, (S)-3-(6-(3-chloro-5-(trifluoromethyl)phenyl)-4-((3-(trifluoromethyl)phenyl)sulfonyl)-3,4-dihydro-2H-benzo[b][1,4]oxazin-2-yl)-2,2-dimethylpropanoic acid] | *** (The symbol “***” indicates a value in the range of greater than 150 to 200) | – | ** (The symbol “**” indicates a value in the range of greater than 90 to 150) |
| < 500 | – | < 500 | CC(C)(C[C@H]1CN(S(=O)(=O)c2cccc(C(F)(F)F)c2)c2cc(-c3cccc4c3OC(F)(F)O4)ccc2O1)C(=O)O [Compound 32AC, (S)-3-(6-(2,2-difluorobenzo[d]-[1,3]dioxol-4-yl)-4-((3-(trifluoro-methyl)phenyl)sulfonyl)-3,4-dihydro-2H-benzo[b][1,4]oxazin-2-yl)-2,2-dimethylpropanoic acid] | *** (The symbol “***” indicates a value in the range of greater than 150 to 200) | – | ** (The symbol “**” indicates a value in the range of greater than 90 to 150) |
| < 500 | – | < 500 | CC(C)(C[C@H]1CN(S(=O)(=O)c2cccc(C(F)(F)F)c2)c2cc(-c3cc(C(F)(F)F)ccc3Cl)ccc2O1)C(=O)O [Compound 32AD, (S)-3-(6-(2-chloro-5-(trifluoromethyl)phenyl)-4-((3-(trifluoromethyl)phenyl)sulfonyl)-3,4-dihydro-2H-benzo[b][1,4]oxazin-2-yl)-2,2-dimethylpropanoic acid] | *** (The symbol “***” indicates a value in the range of greater than 150 to 200) | – | * (The symbol “*” indicates a value in the range of 25 to 90) |
| < 500 | – | < 500 | CC(=O)c1ccc(F)c(-c2ccc3c(c2)N(S(=O)(=O)c2cccc(C(F)(F)F)c2)C[C@H](CC(C)(C)C(=O)O)O3)c1 [Compound 32AE, (S)-3-(6-(5-acetyl-2-fluoro-phenyl)-4-((3-(trifluoromethyl)-phenyl)sulfonyl)-3,4-dihydro-2H-benzo[b][1,4]oxazin-2-yl)-2,2-dimethylpropanoic acid] | *** (The symbol “***” indicates a value in the range of greater than 150 to 200) | – | * (The symbol “*” indicates a value in the range of 25 to 90) |
